Results taken from EP1923473B1, “Bis-diglycolamides (BISDGA) as new extractants for lanthanides [Ln(III)] and actinides [An(III)] from aqueous high-level wastes” (Universidad Autónoma de Madrid, priority 2006, dated 2008).

Experiment: Batch extraction from simulated HLLW from the PUREX process
Format: physicochemical
Details: 0.1 mol/L in TPH/1-octanol (90:10)
Description: The feed solution used for the extraction tests is a simulated solution of an HLLW from the PUREX process, the composition of which is shown in Table 4. Table 4: Composition of the simulated HLLW-PUREX solution used for the extraction tests
The composition of the HLLW corresponds to a burn-up of 33 GWd/tHM, the generated volume of HLLW being 5000 1/t of fuel. The feed was spiked with ^241Am, ^244Cm, ^252Cf and ^152Eu. Oxalic acid and N-(2-hydroxyethyl)ethylenediaminotriacetate (HEDTA) were also added before the extraction tests.
500 µL of the aqueous and organic phases were spiked with 10 µL of a tracer solution containing 241Am, 244Cm, 252Cf and ^152Eu, and were equilibrated for 10 minutes while they were stirred vigorously in a vortex stirrer. After the separation of the phases by centrifugation, 200 µL aliquots of each phase were taken for the determination of the concentration of ^241Am and ^152Eu using a high-purity germanium spectrometer system (EG&G Ortec). The nuclides ^241Am, ^244Cm and ^252Cf were measured by alpha spectrometry with an α-Analyst device of the company Canberra-Packard GmbH, Germany.
The concentrations of the stable elements were determined by mass spectrometry with an inductively coupled plasma source (ICP-MS) in a DRC Elan 6100 device of Perkin Elmer Sciex. The aqueous phase was measured directly after the appropriate dilution. The organic phase was analyzed after having mineralized the organic matter by microwave acid digestion and subsequent dilution.
The distribution coefficients were calculated for each element according to section C).
A 0.1 mol/L solution of compound 4 in the "TPH/1-octanol (90:10)%vol" mixture was prepared. Extraction experiments were carried out with said simulated HLLW in a pure form and also adding oxalic acid and HEDTA to it. These complexing agents have shown to be effective in the DIAMEX process for the complexing of Mo, Zr (H2C2O4) and Pd (HEDTA).
Extraction experiments were carried out with said simulated HLLW in a pure form and also adding oxalic acid and HEDTA to it.

[1] = Oxalic acid 0.2 mol/L, HEDTA 0.05 mol/L, TBP 0.5 mol/L
[2] = Oxalic acid 0.2 mol/L, HEDTA 0.05 mol/L, TBP No
[3] = Oxalic acid 0.3 mol/L, HEDTA 0.05 mol/L, TBP 0.5 mol/L
[4] = Oxalic acid 0.3 mol/L, HEDTA 0.05 mol/L, TBP No
[5] = Oxalic acid No, HEDTA No, TBP 0.5 mol/L
[6] = Oxalic acid No, HEDTA No, TBP No

## 2-Dioctylcarbamoylmethoxy-N-[3-[(2-dioctylcarbamoyl-methoxy-acetylamino)methyl]benzyl]acetamide [Compound 4]
[1]
  Distribution coefficients Ag: 0.013
  Distribution coefficients Ba: 0.0002
  Distribution coefficients Cd: 0.035
  Distribution coefficients Ce: 16
  Distribution coefficients Cf-252: 702
  Distribution coefficients Cm-244: 83
  Distribution coefficients Cs: 0.000087
  Distribution coefficients Eu: 362
  Distribution coefficients Eu-152: 430
  Distribution coefficients Gd: 91
  Distribution coefficients La: 10
  Distribution coefficients Mo: 0.065
  Distribution coefficients Nd: 52
  Distribution coefficients Pd: 0.081
  Distribution coefficients Pr: 26
  Distribution coefficients Rb: 0.0082
  Distribution coefficients Rh: 0.00068
  Distribution coefficients Ru: 0.29
  Distribution coefficients Sm: 253
  Distribution coefficients Y: 1698
  Distribution coefficients Zr: 0.062
[2]
  Distribution coefficients Ag: 0.013
  Distribution coefficients Ba: 0.00019
  Distribution coefficients Cd: 0.034
  Distribution coefficients Ce: 36
  Distribution coefficients Cf-252: 2057
  Distribution coefficients Cm-244: 262
  Distribution coefficients Cs: 0.000087
  Distribution coefficients Eu: 764
  Distribution coefficients Eu-152: 379
  Distribution coefficients Gd: 239
  Distribution coefficients La: 21
  Distribution coefficients Mo: 0.087
  Distribution coefficients Nd: 142
  Distribution coefficients Pd: 0.073
  Distribution coefficients Pr: 59
  Distribution coefficients Rb: 0.0093
  Distribution coefficients Rh: 0.00086
  Distribution coefficients Ru: 0.29
  Distribution coefficients Sm: 690
  Distribution coefficients Y: 1766
  Distribution coefficients Zr: 0.096
[3]
  Distribution coefficients Ag: 0.012
  Distribution coefficients Ba: 0.0002
  Distribution coefficients Cd: 0.036
  Distribution coefficients Ce: 21
  Distribution coefficients Cf-252: 1403
  Distribution coefficients Cm-244: 133
  Distribution coefficients Cs: 0.000087
  Distribution coefficients Eu: 446
  Distribution coefficients Eu-152: 348
  Distribution coefficients Gd: 190
  Distribution coefficients La: 13.7
  Distribution coefficients Mo: 0.094
  Distribution coefficients Nd: 68
  Distribution coefficients Pd: 0.041
  Distribution coefficients Pr: 32
  Distribution coefficients Rb: 0.0081
  Distribution coefficients Rh: 0.00067
  Distribution coefficients Ru: 0.24
  Distribution coefficients Sm: 378
  Distribution coefficients Y: 1658
  Distribution coefficients Zr: 0.022
[4]
  Distribution coefficients Ag: 0.013
  Distribution coefficients Ba: 0.0002
  Distribution coefficients Cd: 0.037
  Distribution coefficients Ce: 32
  Distribution coefficients Cf-252: 1816
  Distribution coefficients Cm-244: 286
  Distribution coefficients Cs: 0.000604
  Distribution coefficients Eu: 513
  Distribution coefficients Eu-152: 553
  Distribution coefficients Gd: 258
  Distribution coefficients La: 18
  Distribution coefficients Mo: 0.115
  Distribution coefficients Nd: 120
  Distribution coefficients Pd: 0.043
  Distribution coefficients Pr: 53
  Distribution coefficients Rb: 0.0082
  Distribution coefficients Rh: 0.00069
  Distribution coefficients Ru: 0.17
  Distribution coefficients Sm: 451
  Distribution coefficients Y: 1708
  Distribution coefficients Zr: 0.099
[5]
  Distribution coefficients Ag: 39
  Distribution coefficients Ba: 0.00019
  Distribution coefficients Cd: 0.033
  Distribution coefficients Ce: 16
  Distribution coefficients Cf-252: 692
  Distribution coefficients Cm-244: 95
  Distribution coefficients Cs: 0.000082
  Distribution coefficients Eu: 327
  Distribution coefficients Eu-152: 294
  Distribution coefficients Gd: 122
  Distribution coefficients La: 10
  Distribution coefficients Mo: 0.066
  Distribution coefficients Nd: 55
  Distribution coefficients Pd: 2.6
  Distribution coefficients Pr: 26
  Distribution coefficients Rb: 0.0080
  Distribution coefficients Rh: 0.00069
  Distribution coefficients Ru: 0.27
  Distribution coefficients Sm: 233
  Distribution coefficients Y: 1773
  Distribution coefficients Zr: 295
[6]
  Distribution coefficients Ag: 37
  Distribution coefficients Ba: 0.00019
  Distribution coefficients Cd: 0.034
  Distribution coefficients Ce: 23
  Distribution coefficients Cf-252: 2079
  Distribution coefficients Cm-244: 191
  Distribution coefficients Cs: 0.000084
  Distribution coefficients Eu: 685
  Distribution coefficients Eu-152: 293
  Distribution coefficients Gd: 166
  Distribution coefficients La: 13
  Distribution coefficients Mo: 0.069
  Distribution coefficients Nd: 94
  Distribution coefficients Pd: 2.5
  Distribution coefficients Pr: 39
  Distribution coefficients Rb: 0.0078
  Distribution coefficients Rh: 0.00066
  Distribution coefficients Ru: 0.25
  Distribution coefficients Sm: 615
  Distribution coefficients Y: 1753
  Distribution coefficients Zr: 133
